Laboratory results: publication PMC11477000, “Enantioselective Binding of Proton Pump Inhibitors to Alpha1-Acid Glycoprotein and Human Serum Albumin—A Chromatographic, Spectroscopic, and In Silico Study” (International Journal of Molecular Sciences, 2024)
Where “and” joins values, the source holds several entries; their conditions need not be identical. Identical values can stand only once.

Tests used:
[1] = biological target: human serum albumin (HSA) (Homo sapiens, UniProt P02768); test: Bound percentage by HPLC on HSA column, extrapolation to zero organic modifier; assay type: in vitro ADME; conditions: for Bound percentage (b%), average: average of IPA, EtOH, MeOH
Sequence of human serum albumin (HSA) (P02768 25-609): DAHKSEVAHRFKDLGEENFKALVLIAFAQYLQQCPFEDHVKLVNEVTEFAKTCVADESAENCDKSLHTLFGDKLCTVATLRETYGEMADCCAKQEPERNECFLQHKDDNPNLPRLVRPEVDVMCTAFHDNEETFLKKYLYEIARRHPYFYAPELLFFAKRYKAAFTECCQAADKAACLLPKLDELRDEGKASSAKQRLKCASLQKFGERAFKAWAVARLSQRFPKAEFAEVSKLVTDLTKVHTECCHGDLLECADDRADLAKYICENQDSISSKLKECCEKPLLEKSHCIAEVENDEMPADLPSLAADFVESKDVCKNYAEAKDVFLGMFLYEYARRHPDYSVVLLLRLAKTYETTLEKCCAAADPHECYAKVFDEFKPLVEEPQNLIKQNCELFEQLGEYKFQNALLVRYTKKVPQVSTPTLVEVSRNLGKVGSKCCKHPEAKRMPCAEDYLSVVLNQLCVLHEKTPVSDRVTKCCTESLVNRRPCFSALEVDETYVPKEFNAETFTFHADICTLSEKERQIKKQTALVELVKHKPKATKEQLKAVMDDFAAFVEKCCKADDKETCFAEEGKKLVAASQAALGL
Experimental: (§1) Chromatographic columns containing proteins can be used to determine the percentage of drug binding. A plot of the natural logarithm of the retention factors against the proportion of organic modifiers was created. […] The intercept of these linear equations can be used to calculate the bound percentage according to Equation (4) (see in Section 3.2).
(§2) Chromatographic measurements were carried out on two separate HPLC systems. The AGP binding study was performed on a Waters 2695e chromatographic system paired with a Waters 2996 PDA detector, controlled by Empower 3 FR5 (Waters Corp., Milford, MA, USA), while the HSA binding study was performed on an Agilent 1100 HPLC system, consisting of an inline degasser (G1322A), a quaternary pump (G1311A), an automatic injector (G1329A) paired with sample thermostat (G1330A), a column thermostat (G1316A), and a diode array detector (G1315A) with Agilent Chemstation B04.03-SP2 software (Agilent, Bronnwald, Germany). For the binding studies, two protein-based chiral stationary phases were utilized. The chromatographic binding study for AGP was conducted on a ChromTech Chiral-AGP column (150 mm × 4.0 mm; ChromTech Ltd., Congleton, UK), while the binding study for HSA was performed on a Daicel Chiralpak HSA column (50 mm × 4.0 mm; Daicel Corp., Osaka, Japan). The detection wavelength was 210 nm for all measurements. The stock solutions of PPIs were prepared at a concentration of 1 mg/mL in MeOH. Subsequent dilutions were prepared using water. The injected samples were mixed and diluted from the stock solutions. The final concentration for the eutomer was 0.2 mg/mL, and for the distomer, it was 0.1 mg/mL. A volume of 2 μL was injected. To mitigate the instability of PPIs in aqueous solutions, the samples were kept at a temperature of 4 °C. Cooling the samples to 4 °C prevented significant decomposition for a period of 24 h. After 24 h, new samples were prepared for injection. Chromatographic parameters were calculated based on the following equations. The retention factor (k) was calculated as:(1) k=(tr−t0)/t0 where tr is the retention time of the investigated analyte, and t0 is the dead time, determined as the first peak appearance in the chromatogram. Resolution was calculated based on the following equation:(2) Rs=2(t2−t1)/(w1+w2) where t2 and t1 are the retention times of the second and first eluted enantiomers, respectively, while w is the peak width. The separation factor (α) was calculated as follows:(3) α=k2/k1 where k1 and k2 are the retention factors of the first- and second-eluting enantiomers, respectively. The k values were also used to calculate the protein-bound percentage (b%) using Equation (4):(4) b%=k/1+k×100

[2] = tested on: α1-acid glycoprotein (AGP); test: Bound percentage by HPLC on AGP column, extrapolation to zero organic modifier; assay type: in vitro ADME, human; conditions: for Bound percentage (b%), average: average of IPA, EtOH, MeOH
Experimental: as §1
as §2, with “Cooling the samples to 4 °C prevented significant decomposition for a period of 24 h.” left out

[3] = extrapolation to zero percent EtOH
[4] = extrapolation to zero percent IPA
[5] = extrapolation to zero percent MeOH

Row | SMILES | Bound percentage (b%), average [1] | Bound percentage (b%) [1, 3] [%] | Bound percentage (b%) [1, 4] [%] | Bound percentage (b%) [1, 5] [%] | Bound percentage (b%), average [2] | Bound percentage (b%) [2, 3] [%] | Bound percentage (b%) [2, 4] [%] | Bound percentage (b%) [2, 5] [%]
1 | Cc1c(OCC(F)(F)F)ccnc1C[S@@+]([O-])c1nc2ccccc2[nH]1 [R-lansoprazole, dexlansoprazole] | 92.45% and 92.45 ± 0.59% | 92.69 | 91.77 | 92.89 | 97.56% and 97.56 ± 1.39% | 97.60 | 98.93 | 96.16
2 | Cc1c(OCC(F)(F)F)ccnc1C[S@+]([O-])c1nc2ccccc2[nH]1 [S-lansoprazole] | 94.64% and 94.64 ± 0.89% | 94.85 | 93.67 | 95.42 | 96.86% and 96.86 ± 1.79% | 96.92 | 98.62 | 95.04
